Paper PMC7993833, “EDP-938, a novel nucleoprotein inhibitor of respiratory syncytial virus, demonstrates potent antiviral activities in vitro and in a non-human primate model” (PLoS Pathogens, 2021)

Assays:
RSV-A M37 = assay: RT-qPCR assay, RSV-A M37 in HEp-2 cells; format: cell-based; settings: human respiratory syncytial virus
Description: (§1) HEp-2, Vero, and BHK were seeded at 8,000 cells per well (cpw) in growth medium (Dulbecco’s Modified Eagle Medium (DMEM) with 1% GlutaMAX, 1% Penicillin/Streptomycin (P/S), 1% Non-Essential Amino Acids (NEAA), 10% Fetal Bovine Serum (FBS)) or (Minimum Essential Medium (MEM) with 10% FBS, 1% NEAA, 1% P/S) or (Eagle’s Minimum Essential Medium with L-Glutamine, with 10% FBS, 1% P/S) respectively. A549 seeded at 3,000 cpw in F-12K Kaighn’s Modification nutrient mixture with 10% FBS, 1% NEAA, 1% P/S. Cells seeded at time of infection in 96-well plates, final well volume 100μL. Compounds suspended in DMSO, serially diluted and added to wells at 0.5% final DMSO concentration. Viral stocks stabilized with 25% sucrose, previously titered using plaque assay, were added at desired MOI. Sucrose added to cells-only control wells to match percent added with virus. Unless otherwise noted, RSV-A strains were tested at 0.1 MOI and incubated for 5 days in a 37°C, 5% CO2 humidified incubator, and RSV-B at 0.5 MOI for 6 days. Cytopathic effect (CPE) determined using ATPlite (Perkin Elmer) measured with Envision luminometer. For RT-qPCR, RNA was extracted from whole well using Ambion RNAqueous-96 Automated Kit, and RT-qPCR run using Applied Biosystems TaqMan RNA-to-CT 1-Step Kit. […] All EC50s were calculated using the XLFit four-parameter logistic model 200 in Microsoft Excel.

RSV-A Long [1] = assay: RT-qPCR assay, RSV-A Long in Vero cells; format: cell-based; settings: human respiratory syncytial virus
RSV-A2 = assay: RT-qPCR assay, RSV-A2 in Vero cells; format: cell-based; settings: human respiratory syncytial virus
Description: as §1

HBEC = assay: Cytotoxicity (ATPlite) in primary HBECs; format: cell-based, human
Description: HEp-2, A549, and CHO cells were seeded at 3,000 cpw in their respective growth medium. CHO growth medium used was RPMI medium 1640 with 10% FBS, 1% P/S, 1% GlutaMAX. HEK-293 cells seeded at 10,000 cpw in DMEM growth medium. Undifferentiated HBECs were seeded in collagen-coated 96-well plates at 7,500 cpw in appropriate growth medium. Compound added and incubated for 3 days (4 days for HBECs) as described above. Plates read with ATPlite and CC50 calculated as EC50s as described above. SI = CC50/EC50 within a cell line.

[2] = test system: broad panel of other viruses; format: cell-based
RSV-B clinical isolates = assay: Susceptibility of USA-derived RSV-B clinical isolates; format: cell-based; settings: human respiratory syncytial virus
Description: Serial dilutions of the compound were added to cells infected with RSV-A isolates at an MOI of 0.1 (except for isolate 629-9-2 at an MOI of 0.01) or RSV-B isolates at an MOI of 0.5 (expect for isolate 629-24/2007 at an MOI of 0.0044) and were treated for 5 or 6 days, respectively. […] This is consistent with the fact that the viral N protein, which is the putative target of the antiviral effect of EDP-938, is the most conserved RSV protein [11].
HEp-2, Vero, and BHK were seeded at 8,000 cells per well (cpw) in growth medium (Dulbecco’s Modified Eagle Medium (DMEM) with 1% GlutaMAX, 1% Penicillin/Streptomycin (P/S), 1% Non-Essential Amino Acids (NEAA), 10% Fetal Bovine Serum (FBS)) or (Minimum Essential Medium (MEM) with 10% FBS, 1% NEAA, 1% P/S) or (Eagle’s Minimum Essential Medium with L-Glutamine, with 10% FBS, 1% P/S) respectively. A549 seeded at 3,000 cpw in F-12K Kaighn’s Modification nutrient mixture with 10% FBS, 1% NEAA, 1% P/S. Cells seeded at time of infection in 96-well plates, final well volume 100μL. Compounds suspended in DMSO, serially diluted and added to wells at 0.5% final DMSO concentration. […] Cytopathic effect (CPE) determined using ATPlite (Perkin Elmer) measured with Envision luminometer. […] All EC50s were calculated using the XLFit four-parameter logistic model 200 in Microsoft Excel. […]

RSV-A clinical isolates = assay: RSV Virospot reduction assay (ViroClinics), RSV-A isolates from the Netherlands; format: cell-based; settings: human respiratory syncytial virus, 10 RSV-A strains from the Netherlands
Description: To further expand testing against clinical isolates, the compound was assayed against a panel of 10 RSV-A and 10 RSV-B strains mainly isolated from children of age 2–200 weeks in the Netherlands.
RSV clinical isolates were obtained from Baylor University and Medical College of Wisconsin. MOI of 0.1 used for all clinical isolates except RSV-A 629-9-2 (0.01) and RSV-B 629-24/2007 (0.0044) due to low titer. Virospot reduction assay was run by ViroClinics (Rotterdam, the Netherlands) against 20 additional RSV clinical isolates.

RSV-A Long [3] = assay: Time-of-addition study, CPE endpoint; format: cell-based, respiratory syncytial virus; settings: for EC50: human respiratory syncytial virus, read-out: EC50 for cytoprotection
Description: In order to help determine which step of the viral life cycle EDP-938 blocks multiple in vitro time-of-addition studies were performed. In the first study, EDP-938 was administered to cells infected with RSV-A Long at a MOI of 0.1 at 2 hours pre-infection (-2) or 2, 6, or 24 hours post-infection (hpi), and viral CPE evaluated 5 days later. […] A second time-of-addition study explored the ability of EDP-938 to protect not just a population experiencing a spreading infection, but individual cells already infected with RSV. Using a MOI of 3, which infects approximately 95% of all cells, virus was cold-adsorbed to the cells for 1 hour to synchronize infection before transfer to 37°C to induce fusion (marking the 0 hpi time point). Compound was added at times indicated and a 24 hpi RT-qPCR endpoint was employed to constrain viral replication cycle to a single complete cycle.
As above, but 8,000 HEp-2 cpw seeded 1-day pre-infection. 2h pre-infection compound or media added. Plates incubated 2h. Viral infection at 0.1 MOI, incubated 1h. Viral inoculum removed, cells washed, and media replaced with compound for -2h sample. Compound added at 2h, 6h, and 24h post-infection to appropriate plates. 5dpi cell viability calculated as described above.

[4] = test system: GS-5806- and AZ-27-resistant RSV; assay: Activity against GS-5806- and AZ-27-selected resistant viruses; format: cell-based, respiratory syncytial virus; settings: GS-5806- and AZ-27-resistant viruses

## O=C1Nc2ccccc2C(c2ccccc2)=N[C@@H]1Nc1nnc(-c2ncc(C(F)(F)F)cc2N2CCOCC2)o1 [EDP-938]
RSV-A M37
  EC50: 54 ± 5 nM
  EC90: 85 ± 21 nM
RSV-A Long [1]
  EC50: 79 ± 12 nM
  EC90: 118 ± 25 nM
RSV-A2
  EC50: 91 nM
  EC90: 101 ± 1.7 nM
HBEC; HBEC cells, SI = CC50/EC50 within a cell line
  selectivity index: > 2,380
HBEC; HBEC, at up to 50 μM, 4 days
  cytotoxicity: no significant cytotoxicity
[2]
  activity against a broad panel of other viruses: did not demonstrate significant activity
RSV-B clinical isolates
  EC50: 121 nM
RSV-A clinical isolates
  EC50: 43 nM
RSV-A Long [3]; 120 h, compound addition at -2 h, HEp-2, RSV-A Long MOI 0.1, CPE 5 days
  EC50: 49 nM
RSV-A Long [3]; compound addition at 2 h post-infection
  EC50: 55 nM
RSV-A Long [3]; compound addition at 6 h post-infection
  EC50: 76 nM
RSV-A Long [3]; compound addition at 24 h post-infection
  EC50: 66 nM
RSV-A Long [3]; when given up to 24 hpi, RSV-A Long MOI 0.1
  cytoprotective activity maintained: about 80%
[4]
  cross resistance of GS-5806- and AZ-27-resistant strains: no signs of cross resistance
